According to patent US20240082273A1, “NEUROKININ INHIBITORS SUCH AS APREPITANT FOR TREATING NON SMALL CELL LUNG CARCINOMA OR BREAST CANCER WITHOUT MUTATIONS” (priority 2020, published 2024):

Experiments:
[1] = test system: lung cancer cell lines with molecular profile EGFR−/ALK+/ROS1− (H322, H332); experiment: MTT proliferation, NSCLC cell lines with EGFR−/ALK+/ROS1− profile; assay type: cell-based, human; conditions: 48 hours
Excerpt: (§1) EGFR, ALK and ROS1 are key molecular factors that may be used to determine pathological classification, prognosis, therapeutics and behaviour in patients with lung cancer. EGFR, ALK and ROS1 are biomarkers routinely analysed in the clinical practice of the management of patients with NSCLC. NSCLC with molecular profile EGFR-/ALK-/ROS1- presents a better response to treatment with the NK1 inhibitor aprepitant, compared to lung cancer with different profiles (in particular, EGFR+/ALK-/ROS1- and EGFR-/ALK+/ROS1-, in which EGFR and ALK respectively contain mutations relative to their wild type gene). Commercial lines of lung cancer were used as shown in Table 2 together with their molecular profile. The molecular profile of the cancer cell lines was determined by sequencing and can be consulted in the Cancer Cell Line Encyclopaedia database of public access available at the url: https://portals.broadinstitute.org/ccle All cells were cultured in wells under vendor-recommended conditions and exposed to different concentrations of aprepitant for 48 hours. In each case a group of wells of cells were used to which no treatment was applied and which were considered as controls. At 48 hours the number of cells was measured. Eight cell lines of human were used for the study of NK1 inhibitors (Table 3). All of them were maintained in culture in their respective culture media (Gibco,Thermo Fisher Scientific) supplemented with 10% foetal bovine serum (FBS) (Gibco, Thermo Fisher Scientific), 2 mM L-Glutamine (Gln) (Sigma-Aldrich, Merk), and […] and […] Gibco, Thermo Fisher Scientific) in a humidified incubator at 37° C. and 5% CO2. Cell culture media used are Dulbecco's Modified Eagle Medium (DMEM), and RPMI Medium 1640 (RPMI-1640). To measure cell viability, the cytotoxicity of drugs in culture was evaluated using the 3-(4,5-Dimethyl-2-thiazolyl)-2,5-diphenyl-2H-tetrazolium bromide (MTT) reduction assay. This assay assesses cell viability through the indirect measurement of the activity of reductases that convert yellow soluble MTT into purple insoluble formazan salts. As MTT can only be reduced when these enzymes are active, the reaction is used as an indicator of the cell metabolic competence and, therefore, of viability. A variable number of cells (depending on the cell line) were seeded in 96 multi-well plates and grown during 24 hours. The following day, the culture medium was aspirated and fresh culture medium with the drug dissolved was added to the wells. After 24 hours or 48 hours cell viability was measurement by adding 10 μl of a 5 mg/ml MTT solution (M5655; Sigma-Aldrich) and 100 μl of HCl 0.01M-SDS 10% solution 4 hours later. After 24 hours, the absorbance was measured at 595 nm, using a multi-well plate reader (iMark, Bio-rad). Each condition was tested 5 times, obtaining 5 values of absorbance. All sample measurements were corrected using the blank (culture medium without cells) mean absorbance value, and normalized to positive control to determinate relative cell viability for each condition at 24 and 48 hours.

H358 = experiment: MTT proliferation, H358; assay type: cell-based, human; conditions: 48 hours
Excerpt: as §1

[2] = test system: human primary triple negative breast carcinoma (ER−/PR−/HER2−) tumour cells; experiment: Primary triple negative breast carcinoma xenograft mouse model; assay type: in vivo, nu/nu Balb/c nude mice; conditions: for Mean proliferation: 28 days
Description: Immunocompromised female mice, 5-6 weeks of age were used, nu/nu Balb/c nude mice, provided by Harlan Iberica Barcelona (Spain). They were kept at 24° C. and in sterile conditions with food and water “ad libitum”. They were injected with 2×10^7 tumour cells, corresponding to human primary triple negative breast carcinoma (i.e. tumour cells having a ER−/PR−/HER2− molecular profile) in 200 μl of PBS subcutaneous route. The tumour size was measured and the mice were evaluated for their state of health and weight daily. The mice were randomised in groups when the tumours reached a volume of 75 mm^3. One of the groups was treated with 200 μl of placebo (control group) and the eight remaining groups with doses of 1 to 100 mg per kilogram of weight and day of the NK1 inhibitor aprepitant. Five animals were treated per group, during 28 days. All the mice were sacrificed at the end of the experiment.

[3] = test system: breast cancer cell line ER−/PR−/HER2+ (SkBr3); experiment: MTT proliferation, breast cancer cell line ER−/PR−/HER2+; assay type: cell-based, human; conditions: 48 hours
Description: All cells were cultured in wells under vendor-recommended conditions and exposed to different concentrations of aprepitant for 48 hours. In each case a group of wells of cells were used to which no treatment was applied and which were considered as controls. At 48 hours the number of cells was measured. To measure cell viability, the cytotoxicity of drugs in culture was evaluated using the 3-(4,5-Dimethyl-2-thiazolyl)-2,5-diphenyl-2H-tetrazolium bromide (MTT) reduction assay. This assay assesses cell viability through the indirect measurement of the activity of reductases that convert yellow soluble MTT into purple insoluble formazan salts. As MTT can only be reduced when these enzymes are active, the reaction is used as an indicator of the cell metabolic competence and, therefore, of viability. A variable number of cells (depending on the cell line) were seeded in 96 multi-well plates and grown during 24 hours. The following day, the culture medium was aspirated and fresh culture medium with the drug dissolved was added to the wells. After 24 hours or 48 hours cell viability was measurement by adding 10 μl of a 5 mg/ml MTT solution (M5655; Sigma-Aldrich) and 100 μl of HCl 0.01M-SDS 10% solution 4 hours later. After 24 hours, the absorbance was measured at 595 nm, using a multi-well plate reader (iMark, Bio-rad). Each condition was tested 5 times, obtaining 5 values of absorbance. All sample measurements were corrected using the blank (culture medium without cells) mean absorbance value, and normalized to positive control to determinate relative cell viability for each condition at 24 and 48 hours.

## C[C@@H](O[C@H]1OCCN(Cc2nc(=O)[nH][nH]2)[C@H]1c1ccc(F)cc1)c1cc(C(F)(F)F)cc(C(F)(F)F)c1 [Aprepitant]
[1]; aprepitant 1 μM
  Mean proliferation: 102.88
[1]; aprepitant 3 μM
  Mean proliferation: 92.41
[1]; aprepitant 5 μM
  Mean proliferation: 105.07
[1]; aprepitant 10 μM
  Mean proliferation: 108.06
[1]; aprepitant 20 μM
  Mean proliferation: 99
[1]; aprepitant 30 μM
  Mean proliferation: 88.22
[1]; aprepitant 40 μM
  Mean proliferation: 68.94
[1]; aprepitant 50 μM
  Mean proliferation: 37.3
[1]; aprepitant 60 μM
  Mean proliferation: 11.67
H358; aprepitant 1 μM
  Mean proliferation: 101.3
H358; aprepitant 3 μM
  Mean proliferation: 89.28
H358; aprepitant 5 μM
  Mean proliferation: 87.69
H358; aprepitant 10 μM
  Mean proliferation: 64.12
H358; aprepitant 20 μM
  Mean proliferation: 43.44
H358; aprepitant 30 μM
  Mean proliferation: 32.09
H358; aprepitant 40 μM
  Mean proliferation: 27.23
H358; aprepitant 50 μM
  Mean proliferation: 3.10
H358; aprepitant 60 μM
  Mean proliferation: 2.86
[2]; aprepitant 1 mg/kg/day
  Mean proliferation: 104
[2]; aprepitant 3 mg/kg/day
  Mean proliferation: 108
[2]; aprepitant 5 mg/kg/day
  Mean proliferation: 112
[2]; aprepitant 8 mg/kg/day
  Mean proliferation: 110
[2]; aprepitant 10 mg/kg/day
  Mean proliferation: 99
[2]; aprepitant 20 mg/kg/day
  Mean proliferation: 76
[2]; aprepitant 30 mg/kg/day
  Mean proliferation: 65
[2]; aprepitant 40 mg/kg/day
  Mean proliferation: 61
[2]; aprepitant 50 mg/kg/day
  Mean proliferation: 56
[2]; aprepitant 60 mg/kg/day
  Mean proliferation: 54
[2]; aprepitant 70 mg/kg/day
  Mean proliferation: 50
[2]; aprepitant 80 mg/kg/day
  Mean proliferation: 50
[2]; dose-dependent fashion
  triple negative human primary breast carcinoma proliferation in a xenograft model: reduces
[3]; aprepitant 0.3 μM
  Mean proliferation: 99.8
[3]; aprepitant 1 μM
  Mean proliferation: 100.23
[3]; aprepitant 3 μM
  Mean proliferation: 95.65
[3]; aprepitant 10 μM
  Mean proliferation: 81.8
[3]; aprepitant 20 μM
  Mean proliferation: 65.97
[3]; aprepitant 30 μM
  Mean proliferation: 45.14
[3]; aprepitant 40 μM
  Mean proliferation: 32.62
[3]; aprepitant 50 μM
  Mean proliferation: 23.78
[3]; aprepitant 60 μM
  Mean proliferation: 12.87
